Test results: publication PMC7881127, “Cholesterol as a modulator of cannabinoid receptor CB2 signaling” (Scientific Reports, 2021)

Target: cannabinoid receptor CB2 (Homo sapiens, UniProt P34972)
Test: GEF G protein activation assay on purified CB2 reconstituted in liposomes
Type: biochemical
Parameters: E. coli construct) (cleaved yes); twin-Streptag (N); His10 (C); made in house; host or cells: E. coli BL21 (DE3) and Expi293F GNTI-
Source text: To assess the possible role of post-translational modifications of CB2 on its activation by the MRI ligands, the recombinant CB2 receptor was isolated from two different expression cell lines, E. coli BL21 (DE3)[41] and Expi293F GNTI^-[42]. The protein was purified and reconstituted into lipid bilayers containing 1-palmitoyl-2-oleoyl-glycero-3-phosphocholine (POPC) and, 1-palmitoyl-2-oleoyl-sn-glycero-3-phospho-(1′-rac-glycerol) (POPG) at a molar ratio of 3/1, either supplemented or not supplemented with cholesterol, as described in “Methods”[10],[13]. We reported previously that the presence of phospholipids with a negatively charged headgroup stabilizes CB2 protein in lipid bilayers. Therefore, purified CB2 was reconstituted into POPC/POPG (3/1, mol/mol) liposomes containing 0, 20 and 40 mol% cholesterol (reported as total content of lipids) as described in “Methods”. In one case, the protein purified from E. coli cells was reconstituted into lipids extracted from brain tissue (Avanti Polar Lipids). The ratio of protein-to-lipid in the resulting samples was in the range of 1:850 to1:1100 (mol/mol). The levels of protein, and the density of ligand binding sites for receptor preparations reconstituted in liposomes with different content of cholesterol varied only slightly (Supporting Fig. 5a,b).
Figure 7 Activation of G protein on CB2 receptor reconstituted in liposomes. Liposome composition: 75% POPC, 25% POPG and cholesterol content relative to total phospholipids as indicated, or total lipids extracted from bovine brain, as indicated. Proteins were reconstituted at a protein-to-lipid ratio in the range 1:850 to 1:1100 mol/mol. (a–d) CB2 purified from E. coli cells. (e,f) CB2 purified from Expi293F GNTI^- cells. Average values of four independent measurements are plotted (n = 4). Dotted lines represent the rates of activation of G protein in the absence of a ligand.
Reconstitution of the purified CB2 into liposomes was performed as described earlier. Briefly, 200 μg of the purified protein was mixed with 2 mg of lipid mixture (POPC:POPG, 3:1, mol/mol without or with addition or 20 mol% or 40 mol% of cholesterol) solubilized in 1% CHAPS at a concentration of 5 mg lipid/mL, and incubated on ice for 30 min. The detergents were then removed on 4 mL Detergent Removal spin column (Pierce), according to manufacturer’s instructions. The combined filtrate containing proteoliposomes was collected, and aliquots frozen in liquid nitrogen. Frozen liposomes were stored at − 80 °C until further use. Content of protein in proteoliposomes was determined by BioRad DC assay.
The subunits of G protein were expressed and purified as described previously. The nucleotide exchange assay was performed as previously described.

Sequence of cannabinoid receptor CB2 (P34972 whole entry): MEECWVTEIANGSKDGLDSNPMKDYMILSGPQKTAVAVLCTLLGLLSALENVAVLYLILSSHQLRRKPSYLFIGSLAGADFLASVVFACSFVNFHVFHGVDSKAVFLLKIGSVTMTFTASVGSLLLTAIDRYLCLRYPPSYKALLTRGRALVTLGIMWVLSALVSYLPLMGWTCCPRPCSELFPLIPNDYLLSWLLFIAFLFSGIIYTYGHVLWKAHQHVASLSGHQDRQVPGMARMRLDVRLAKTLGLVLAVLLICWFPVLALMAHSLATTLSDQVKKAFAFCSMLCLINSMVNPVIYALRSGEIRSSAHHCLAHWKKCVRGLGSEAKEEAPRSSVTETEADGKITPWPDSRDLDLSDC

CC(=O)OCCn1c(=NC(=O)C2C(C)(C)C2(C)C)sc2cc(Cl)ccc21 [MRI-2646, 2-(6-Chloro-2-((2,2,3,3-tetramethylcyclopropane-1-carbonyl)imino)benzo[d]thiazol-3(2H)-yl)ethyl acetate]
Pharmacological category in GEF assay (CB2 from E. coli, POPC/POPG liposomes devoid of cholesterol): partial agonist | Pharmacological category in GEF assay (CB2 from E. coli, liposomes with 20% or 40% cholesterol or brain lipid extract): partial inverse agonist | Pharmacological category in GEF assay (CB2 from Expi293F GNTI- (HEK) cells, liposomes with 40% of cholesterol): partial inverse agonist | Pharmacological category in GEF assay (CB2 from Expi293F GNTI- cells, liposomes without cholesterol): partial agonist
